Experimental data reported in PMC6609550, “Blockade of the forward Na^+/Ca^2+ exchanger suppresses the growth of glioblastoma cells through Ca^2+‐mediated cell death” (British Journal of Pharmacology, 2019).

Columns and labels:
p38‐MAPK = test: Western blot of phosphorylated and total p38-MAPK in U87 cells; type: cell-based, Human; settings: 25 μM, 10, 30, 60 and 90 min
Procedure: (§1) After treatment with bepridil for 0, 30, 60, and 90 min, cells were collected and lysed in RIPA buffer (Beyotime, Nanjing, China) supplemented with protease inhibitor (Beyotime). The total protein concentration of each sample was determined using the BCA Protein Assay Kit (Sangon Biotech, Shanghai, China). Equal protein extracts (45‐μg protein per lane) were separated by SDS‐PAGE and electrophoretically transferred to PVDF membranes (Millipore, Bedford, MA, USA). Then, the membranes were incubated with anti‐phosphorylated and total http://www.guidetopharmacology.org/GRAC/FamilyDisplayForward?familyId=514, http://www.guidetopharmacology.org/GRAC/FamilyDisplayForward?familyId=518, and http://www.guidetopharmacology.org/GRAC/FamilyDisplayForward?familyId=519 antibodies (1:1,000; Cell Signaling Technology) at 4°C overnight, followed by incubation with IRDye 680LT fluorescent secondary antibody (LI‐COR Biosciences, Lincoln, NE, USA). Proteins were visualized using the Odyssey Fc Imaging System (LI‐COR Biosciences, Lincoln, NE, USA). Mouse α‐tubulin antibody was used as protein loading controls. The immuno‐related procedures used comply with the recommendations made by the British Journal of Pharmacology (Alexander et al., 2018).

U87‐Luc xenografts = test: U87-luciferase intracranial xenograft, in vivo bioluminescent imaging; parameters: species or system athymic BALB/c nude mice; settings: 50 mg·kg^−1 p.o. once a day for 14 days, from 16 days after implantation; n = 5 mice per group
Procedure: The athymic BALB/c nude mice were anaesthetized by subjecting them to 3% isoflurane (RWD Life Science, Shenzhen, China) in a mixture of 30% O2 and 70% N2O. […] The mouse head was maintained within a stereotactic frame (RWD Life Science), allowing a precise and reproducible injection. The coordinate of the injection site was 0.5 mm anterior and 2.5 mm right from the bregma and at a depth of 3 mm. U87-Luc cells (COBIOER) were assessed by the trypan blue exclusion assay. Only cell suspensions with greater than 95% viability were used and implanted into the right striatum of nude mice. U87-Luc cells (5 × 10^5 in 5-μl PBS) were inoculated into the right striatum of each mouse at a controlled flow rate of 0.5 μl·min^-1, and the total injection volume was about 5 μl. […] Tumours were measured by bioluminescence using an IVIS Spectrum CT Imaging System (PerkinElmer, Waltham, MA, USA), which captured the luminescence signal emitted from the engrafted tumour. […] Signal intensity was quantified within a region of interested over the head, as defined by Living Image software. All images represent 2-min exposure time, and the average number of photons·s^-1·cm^-2 per steradian were recorded. The data were analysed using Living Image 4.4.5 software (PerkinElmer, RRID:SCR_014247).

JNK = test: Western blot of phosphorylated and total JNK in U87 cells; type: cell-based, Human; settings: 25 μM, 10, 30, 60 and 90 min
Procedure: as §1

[1] = Cell viability assay (Cell Counting Kit-8), ranges given for U87 and U251 together; type: cell-based, Human; settings: human, U87 and U251 cells, read-out: Cell viability, % of control level
Procedure: (§2) Cell viability was determined by using a Cell Counting Kit‐8 (Dojindo, Japan). Briefly, cells were harvested from flasks and plated in 96‐well cell culture plates at 5 × 10^3 per well and cultured overnight. Cells were treated with test reagents for 72 hr. Control cells were treated with cell culture medium and measured at the same time point as treatment groups. CCK‐8 solution (10 μl) was added to each well of the 96‐well plates, and the cultures were incubated for 30 min at 37°C. Absorbance at 450 nm was measured using an automatic microplate reader (Molecular Devices, San Jose, CA, USA).

ERK = test: Western blot of phosphorylated and total ERK in U87 cells; type: cell-based, Human; settings: 25 μM, 10, 30, 60 and 90 min
Procedure: as §1, with “The” for “After treatment with bepridil for 0, 30, 60, and 90 min, cells were collected and lysed in RIPA buffer (Beyotime, Nanjing, China) supplemented with protease inhibitor (Beyotime). The”

[2] = parameters: method as in Lipsanen et al., 2013; Mitterreiter et al., 2010; settings: oral administration or intraperitoneal injection at 50 mg·kg^−1 body weight, two animal studies; ref Lipsanen et al., 2013; Mitterreiter et al., 2010; cited from earlier work
U87 and U251 cells = test: Cell viability assay (Cell Counting Kit-8), ranges given for U87 and U251 together; type: cell-based, Human; settings: 72 hr
Procedure: as §2

| SMILES | Effect on p38-MAPK activity (p38‐MAPK) | Growth of brain-grafted U87-Luc tumour (bioluminescence) (U87‐Luc xenografts) | Effect on JNK activity (JNK) | viability at 72 h, 20 µM ([1]; 20 μM) [%] | viability at 72 h, 50 µM ([1]; 50 μM) [%] | viability at 72 h, 100 µM ([1]; 100 μM) [%] | Effect on ERK activity (ERK) | Penetration of the blood–brain barrier [2] | Cell viability, % of control level (U87 and U251 cells; 20 μM) | Cell viability, % of control level (U87 and U251 cells; 50 μM) | Cell viability, % of control level (U87 and U251 cells; 100 μM) |
| --- | --- | --- | --- | --- | --- | --- | --- | --- | --- | --- | --- |
| CC(C)COCC(CN(Cc1ccccc1)c1ccccc1)N1CCCC1 (centres unmarked) [Bepridil, N‐benzyl‐N‐(3‐isobutoxy‐2‐pyrrolidin‐1‐yl‐propyl)aniline] | activated | successfully restrained tumour growth | activated | 30 to 40 | 6 to 7 | 3 to 4 | not affected | able to penetrate the blood–brain barrier (BBB) and reach the brain |  |  |  |
| CS(=O)(=O)O.N=C(N)SCCc1ccc(OCc2ccc([N+](=O)[O-])cc2)cc1 [KB‐R7943, 2‐[4‐[(4‐nitrophenyl)methoxy]phenyl]ethyl ester carbamimidothioic acid methanesulfonate] |  |  |  |  |  |  |  |  | 50–60% | 7–18% | 2–3% |
